Data from ChEMBL document CHEMBL1132473 (J Med Chem, 1999).

Biological target: 4-aminobutyrate aminotransferase, mitochondrial (Sus scrofa, UniProt P80147)
Test: Compound was tested for the inhibition of Gamma-amino-N-butyrate transaminase (GABA-AT)

4-aminobutyrate aminotransferase, mitochondrial, sequence (P80147 whole entry): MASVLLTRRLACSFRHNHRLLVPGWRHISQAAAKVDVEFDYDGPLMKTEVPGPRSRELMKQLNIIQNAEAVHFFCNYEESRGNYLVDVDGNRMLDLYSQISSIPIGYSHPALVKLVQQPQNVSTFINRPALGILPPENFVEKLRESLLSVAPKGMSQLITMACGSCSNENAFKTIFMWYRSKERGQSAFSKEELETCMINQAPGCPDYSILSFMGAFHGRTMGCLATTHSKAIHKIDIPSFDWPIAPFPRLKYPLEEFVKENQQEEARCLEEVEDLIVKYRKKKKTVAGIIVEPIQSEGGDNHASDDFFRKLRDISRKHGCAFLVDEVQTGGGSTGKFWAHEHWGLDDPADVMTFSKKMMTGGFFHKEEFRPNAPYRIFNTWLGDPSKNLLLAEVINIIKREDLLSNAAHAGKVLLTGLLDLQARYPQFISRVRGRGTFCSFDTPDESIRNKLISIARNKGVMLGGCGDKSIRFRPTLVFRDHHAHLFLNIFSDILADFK

| Ki | SMILES |
| --- | --- |
| 1.2 mM | N[C@@H]1CC=C(C(=O)O)C1 |
| 2.7 mM | N[C@H]1C=C[C@@H](C(=O)O)C1 |
| 0.052 mM | N[C@@H]1C=C[C@H](C(=O)O)C1 |

More lines, now with the values behind:

| SMILES | Ki |
| --- | --- |
| N[C@@H]1C=C[C@@H](C(=O)O)C1 | 38 mM |
| N[C@H]1CC=C(C(=O)O)C1 | 72 mM |
| NC1C=CC(C(=O)O)C1 (racemic) | 0.6 mM |
